Assay results from article PMC4701221, “Novel Promising Estrogenic Receptor Modulators: Cytotoxic and Estrogenic Activity of Benzanilides and Dithiobenzanilides” (PLoS ONE, 2016).
Entries after “also recorded” stand apart in the source; their conditions may differ.

Experiments:
MCF-7 cells [1] = experiment: MTT assay, MCF-7; format: cell-based, human; conditions: for IC50: Homo sapiens, MCF7, 72 h, estrogen dependent breast adenocarcinoma, read-out: Cytotoxic activity IC50, MCF-7; for Activity in MTT assay (in words), MCF-7: 72 h
Description: (§1) The cell lines used in the cytotoxicity study, besides MCF-12A, were purchased from European Collection of Cell Culture (ECACC, Salisbury, UK): HEK293 (human embryonic kidney, ATTC no. CRL-1573), A549 (Human lung carcinoma, ECACC no. 86012804), CCD39Lu (Human lung fibroblasts, ECACC no. 90110512), MCF-7 (Human breast adenocarcinoma, ECACC no. 86012803) and MDA-MB-231 (Human breast adenocarcinoma ECACC no. 92020424). Cell lines were cultured in DMEM medium without phenol red and supplemented with 10% (v/v) FBS, 1% penicillin-streptomycin and 1% L-glutamine. MCF-12A (ATTC no. […]) was purchased from American Type Culture Collection (ATCC Manassas, VA 20110 USA). MCF-12A cells were kept in 1:1 mixture of Dulbecco’s modified Eagle’s medium and Ham’s F12 medium, 20 ng/ml human epidermal growth factor, 100 ng/ml cholera toxin, 0.01 mg/ml bovine insulin, 500 ng/ml hydrocortisone and 5% horse serum. All cell lines were cultured at 37°C, in a humidified atmosphere containing 5% CO2.
(§2) Compounds were dissolved in DMSO to the final concentration of […]. A549, CCD39Lu, MCF-7, MDA-MB-231 and MCF-12A cells were seeded in 96 wells plates at density 2x10^4 cells/well and incubated overnight as described above. Subsequently, cells were treated with tested compounds at concentrations: 100 μM; 50 μM; 25μM; 12.5μM; 6 μM; 3 μM; 1.5 μM. […] Cells were incubated 72 h at 37°C in a humidified atmosphere containing 5% CO2 in the cell culture media appropriate for each cell line. Then, the medium was aspirated and 170 μl MTT solution (5mg/ml) was added to each well. Plates were incubated for 2 hours at 37°C, and then plates were centrifuged at 1200 rpm for 3 minutes. The formazan crystals were dissolved in 200 μl DMSO and plates were further agitated on a plate shaker at 300–500 rpm for 10 minutes. Absorbance at 570 nm (with reference wavelenght 650 nm) was measured using a plate reader (Biotek Instruments, Elx-800). Cell viability was calculated as a percentage relative to the control.

MDA-MB-231 cells = experiment: MTT assay, MDA-MB-231; format: cell-based, human; conditions: for IC50: Homo sapiens, MDA-MB-231, 72 h, estrogen independent breast adenocarcinoma, read-out: Cytotoxic activity IC50, MDA-MB-231
Description: as §1, §2

MTT assay, MCF-12A = format: cell-based; conditions: human, MCF-12A cells (non-tumorigenic breast epithelial), read-out: Cytotoxic activity IC50, MCF-12A
Description: as §1, §2

A549 cells = experiment: MTT assay, A549; format: cell-based; conditions: Homo sapiens, 72 h, lung adenocarcinoma, read-out: Cytotoxic activity IC50, A549
Description: as §1, §2

MTT assay, CCD39Lu = format: cell-based; conditions: human, CCD39Lu cells (non-tumorigenic lung fibroblasts), read-out: Cytotoxic activity IC50, CCD39Lu
Description: as §1, §2

human ERα receptor = target: T1, human ERα receptor (Homo sapiens, UniProt P03372); experiment: Estrogen Receptor luciferase assay in HEK293 cells transfected with ERα; format: cell-based; conditions: HEK293 transfected with ERα and luciferase reporter, compared with estradiol, Fig 3A/3B
T1 construct: host or cells: HEK293
T1 sequence (P03372 1-595): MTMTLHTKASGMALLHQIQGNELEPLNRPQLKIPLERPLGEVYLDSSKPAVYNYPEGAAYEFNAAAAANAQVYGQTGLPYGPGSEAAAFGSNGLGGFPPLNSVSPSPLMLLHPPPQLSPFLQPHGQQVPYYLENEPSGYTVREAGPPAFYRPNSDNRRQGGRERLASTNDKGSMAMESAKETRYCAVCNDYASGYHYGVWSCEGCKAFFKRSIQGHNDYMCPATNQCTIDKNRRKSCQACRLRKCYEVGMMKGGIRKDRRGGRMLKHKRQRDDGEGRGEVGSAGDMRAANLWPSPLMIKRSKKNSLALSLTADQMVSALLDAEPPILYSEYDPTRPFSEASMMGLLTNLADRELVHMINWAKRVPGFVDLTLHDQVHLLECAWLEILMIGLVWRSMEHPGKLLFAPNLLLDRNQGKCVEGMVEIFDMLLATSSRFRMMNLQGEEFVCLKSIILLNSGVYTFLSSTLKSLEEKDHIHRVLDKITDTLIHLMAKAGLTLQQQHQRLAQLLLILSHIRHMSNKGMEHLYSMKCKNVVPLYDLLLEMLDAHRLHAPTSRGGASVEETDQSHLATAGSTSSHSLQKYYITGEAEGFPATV
Description: (§3) To obtain a eukaryotic vector expressing only the ER-α nuclear receptor, a construct was designed by cloning a KpnI-BamHI fragment from plasmid pEGFP-C1-ERα containing the ERα coding sequence that includes a stop signal into the pEGFP-N3 plasmid (Clontech Laboratories, Palo Alto, CA) under the control of the CMV promoter. This construction was termed pEGFP-N-ERα, and although it encoded both human ERα receptor and GFP protein, only the former is expressed. For mock transfections, pEGFP-N3 plasmid was digested with BglII and NotI and religated after polishing DNA ends to remove GFP coding sequence. Plasmid sequence was confirmed by automatic sequencing. Prior to transfection, cells were seeded in 48 well plates at density of 1.5 x 10^4 cells/well and incubated for 24 h to reach a cell confluence of 80–90%. […] MCF-7 cells, which endogenously express ERα receptor, were transfected with p3xERRE/ERE-luciferase plus the pRLTK Renilla luciferase control plasmid (95:5). Firefly and Renilla luciferase activities were measured using the Dual Luciferase Assay System (Promega, Madison, WI, USA), following a standard protocol using a Sirius L luminometer (Berthold Technologies, Bad Wildbad, Germany). Data were expressed as relative changes in luciferase activity and normalized to 100%.

estrogen receptor = target: T2, estrogen receptor (Homo sapiens, UniProt P03372); experiment: Estrogen Receptor luciferase assay in MCF-7 cells (endogenous ER); format: cell-based; conditions: MCF-7 transfected with p3xERRE/ERE-luciferase, Fig 3C
T2 construct: MCF-7 cells, which endogenously express ERα receptor; endogenous in cells; host or cells: MCF-7
T2 sequence (P03372 1-595): T1 sequence (P03372 1-595)
Description: as §3

MCF-7 cells [2] = experiment: LDH release assay, MCF-7; format: cell-based, human; conditions: 72 h, Fig 2
Description: Cytotoxicity was evaluated by measuring the cell membrane permeability, using a LDH assay kit purchased from Cayman Chemical (Ann Arbor USA). The LDH assay was performed for MCF-7 and MDA-MB-231 cells (seeded at 2×10^4 density). As a positive control cell permeabilization with 1%Triton X-100 was used. The assay was performed 72h after start the incubation. Briefly, the plates were centrifuged at 400 ×g for 5 minutes, and 100 μL of supernatant were transferred from each well to the new 96-well plate and analyzed according to the manufacturer’s protocol. 100 μL of reaction mixture, containing lactic acid, NAD^+, tetrazolium salt and diaphorase, was added to each well. Plates were incubated on an orbital shaker for 30 minutes at room temperature and the absorbance at 490 nm was measured with a plate reader (Biotek Instruments, Elx-800). Results were expressed as a percentage of the total value of the positive control.

MCF-7 cells [3] = experiment: Sulphorodamine B assay, MCF-7; format: cell-based, human; conditions: 72 h, Fig 2
Description: In addition to the MTT assay, cell viability was measured by the Sulphorodamine B assay according to Vichai and Kirtikara. The MCF-7 and MDA-MB-23 cells were seeded and treated as for the MTT assay. After incubation the medium was removed and the cells were fixed with cold (4°C) trichloroacetic acid (final concentration 10%) for 1h. Than plates were washed 4 times with water and stained for 30 min, following by staining with sulforhodamine B (SRB) 0.4% in 1% acetic acid solution at room temperature for 20 min. After staining, the SRB solution was removed and the plates washed 5 times with 1% acetic acid dried. Bound SRB was solubilized with 200 μl 10 mM unbuffered Tris-base solution and plates were shaked for 10 min. The absorbance at 510 nm was measured using a plate reader (Biotek Instruments, Elx-800).

| SMILES | IC50 (MCF-7 cells [1]) [µM] | IC50 (MDA-MB-231 cells) [µM] | IC50 at 72 h (MTT assay, MCF-12A) [µM] | IC50 (A549 cells) [µM] | IC50 at 72 h (MTT assay, CCD39Lu) [µM] | Activity in MTT assay (in words), MCF-7 (MCF-7 cells [1]) | Toxicity/effect in MTT assay (in words), MDA-MB-231 (MDA-MB-231 cells; 72 h) | ER dependent transcriptional activity (human ERα receptor) | Transcriptional (luciferase) activity in MCF-7 (estrogen receptor) | LDH release, MCF-7 (MCF-7 cells [2]) | Effect in SRB assay, MCF-7 (MCF-7 cells [3]) |
| --- | --- | --- | --- | --- | --- | --- | --- | --- | --- | --- | --- |
| COc1ccc(NC(=O)c2cc(Cl)ccc2[N+](=O)[O-])cc1 [Compound 3] | > 100 | > 100 | > 100 | > 100 | > 100 | – | – | – | – | – | – |
| COc1cc(NC(=S)c2ccccc2NC(=S)c2cc(OC)c(OC)c(OC)c2)cc(OC)c1OC [Compound 13] | > 100 | > 100 | > 100 | > 100 | > 100 | – | – | – | – | – | – |
| Fc1cc(NC(=S)c2ccccc2NC(=S)c2cc(F)c(F)c(F)c2)cc(F)c1F [Compound 10] | 0.37 | 0.52 | 1.22 | 0.41 | 0.76 | significant activity | significant degree of toxicity | – | – | – | – |
| COc1ccc(NC(=O)c2ccccc2NC(=O)COC(C)=O)cc1 [Compound 19] | > 100 | > 100 | > 100 | 72.4 | 47.9 | – | – | – | – | – | – |
| O=C(Nc1cc(F)c(F)c(F)c1)c1ccccc1[N+](=O)[O-] [Compound 8] | > 100 | > 100 | > 100 | > 100 | > 100 | – | – | – | – | – | – |
| COc1ccc(NC(=O)c2ccc(F)cc2[N+](=O)[O-])cc1 [Compound 2] | 38.3 | 39.7 | > 100 | 47.6 | 45.2 | significant activity | – | did not stimulate ER dependent transcriptional activity | – | – | – |
| COc1cc(NC(=O)c2cc(C)c(C)cc2[N+](=O)[O-])cc(OC)c1OC [Compound 6] | 24.7 | > 100 | > 100 | > 100 | > 100 | significant activity | – | capable to mediate ER dependent transcriptional activity in a similar mode than estradiol | much lower | – | – |
| COc1ccc(NC(=O)c2ccc(OC)cc2[N+](=O)[O-])cc1 [Compound 4] | 28.4 | 67 | > 100 | 30.1 | 48.8 | significant activity | – | did not stimulate ER dependent transcriptional activity | – | – | – |
| O=C(Nc1cc(F)c(F)c(F)c1F)c1ccccc1NC(=O)c1cc(F)c(F)c(F)c1F [Compound 12] | > 100 | 40.1 | > 100 | > 100 | 61.4 | – | – | did not stimulate ER dependent transcriptional activity | – | – | – |
| COc1ccc(NC(=O)c2ccc(NC(=O)c3ccc(OC)cc3)cc2)cc1 [Compound 17] | > 100 | > 100 | > 100 | > 100 | > 100 | – | – | – | – | – | – |
| O=C(Nc1ccccc1C(=O)Nc1cc(F)c(F)c(F)c1)c1cc(F)c(F)c(F)c1 [Compound 9] | > 100 | > 100 | > 100 | > 100 | > 100 | – | – | – | – | – | – |
| COc1cc(NC(=S)c2ccc(NC(=S)c3cc(OC)c(OC)c(OC)c3)cc2)cc(OC)c1OC [Compound 16] | 69.8 | 30 | > 100 | > 100 | 6.48 | – | – | did not stimulate ER dependent transcriptional activity | – | – | – |
| COc1ccc(NC(=S)c2cccc(NC(=S)c3ccc(OC)cc3)c2)cc1 [Compound 15] | 17.7 | > 100 | > 100 | > 100 | > 100 | significant activity; also recorded: strong effect | – | capable to mediate ER dependent transcriptional activity in a similar mode than estradiol | – | relatively low increase | strong effect |
| COc1cc(NC(=O)c2ccccc2[N+](=O)[O-])cc(OC)c1OC [Compound 7] | > 100 | > 100 | > 100 | 93.1 | > 100 | – | – | – | – | – | – |
| COc1ccc(NC(=O)c2ccccc2[N+](=O)[O-])cc1 [Compound 1] | 74.9 | 79.8 | > 100 | 92.4 | 96.3 | – | – | – | – | – | – |
| COc1cc(NC(=S)c2cccc(NC(=S)c3cc(OC)c(OC)c(OC)c3)c2)cc(OC)c1OC [Compound 20] | > 100 | > 100 | > 100 | > 100 | > 100 | – | – | – | – | – | – |
| COc1ccc(NC(=O)c2cc(C)c(C)cc2[N+](=O)[O-])cc1 [Compound 5] | > 100 | 92 | > 100 | > 100 | > 100 | – | – | – | – | – | – |
